Values quoted from earlier work in patent US10548861B2 (Academia Sinica, priority 2015, dated 2020).

Legend:
Conditions in all cases: TK, AEW, SOR, TOPO, publically accessible data (Broad, Sanger), read-out: cytotoxicity IC50; cited from earlier work
Mino = system: Mino
Ly10 = system: Ly10
Granta-519 = system: Granta-519

Measured: IC50

CNC(=O)c1cc(Oc2ccc(NC(=O)Nc3ccc(Cl)c(C(F)(F)F)c3)cc2)ccn1 [SOR]
28 µM: all assays above
